Among the data in ChEMBL document CHEMBL3745602, “Design, synthesis and in vivo screening of some novel quinazoline analogs as anti-hyperlipidemic and hypoglycemic agents” (2016) are Activity and Ratio values, retold here.

Common to all, as to assay type: functional
The subject of assay [1] is Rattus norvegicus. The assay can be described thus: Hypolipidemic activity in high fat-induced hyperlipidemic Sprague-Dawley rat assessed as VLDL level at 250 mg/kg, po dosed for last 7 days during 30 day high-fat diet feeding schedule (reference value: 23.48+/- 0.78 mg/dl).
In assay [2] the test system is Rattus norvegicus. The assay can be described thus: Hypoglycemic activity in Sprague-Dawley rat assessed as blood glucose level at 250 mg/kg, po dosed for last 7 days during 30 day high-fat diet feeding schedule (reference value: 63.70 +/- 0.7 mg/dl).
Assay [3] deals with Rattus norvegicus. The experiment in a line: Hypolipidemic activity in high fat-induced hyperlipidemic Sprague-Dawley rat assessed as ratio of cholesterol level to HDL level at 250 mg/kg, po dosed for last 7 days during 30 day high-fat diet feeding schedule (reference value: 1.88 +/- 0.05).
Assay [4] deals with Rattus norvegicus. The experiment in a line: Hypolipidemic activity in high fat-induced hyperlipidemic Sprague-Dawley rat assessed as cholesterol level at 250 mg/kg, po dosed for last 7 days during 30 day high-fat diet feeding schedule (reference value: 70.8 +/- 0.5 mg/dl).
Assay [5] has as its system Rattus norvegicus. The assay can be described thus: Hypolipidemic activity in high fat-induced hyperlipidemic Sprague-Dawley rat assessed as LDL level at 250 mg/kg, po dosed for last 7 days during 30 day high-fat diet feeding schedule (reference value: 22.42 +/- 0.41 mg/dl).
In assay [6] the test system is Rattus norvegicus. The assay can be described thus: Hypolipidemic activity in high fat-induced hyperlipidemic Sprague-Dawley rat assessed as HDL level at 250 mg/kg, po dosed for last 7 days during 30 day high-fat diet feeding schedule (reference value: 37.5 +/- 0.96 mg/dl).
The subject of assay [7] is Rattus norvegicus. The assay can be described thus: Hypolipidemic activity in high fat-induced hyperlipidemic Sprague-Dawley rat assessed as triglyceride level at 250 mg/kg, po dosed for last 7 days during 30 day high-fat diet feeding schedule (reference value: 74.3+/- 0.48 mg/dl).
Assay [8] relates to Rattus norvegicus. The experiment in a line: Effect on body weight in Sprague-Dawley rat at 250 mg/kg, po dosed for last 7 days during 30 day high-fat diet feeding schedule measured every 5th day (reference value: 207.67 +/- 1.2 g).

Take `Cc1nc2ccccc2c(=O)n1-c1ccc(OCC(=O)O)cc1`: the Activity is 34.89 mg/dL in the assay on Rattus norvegicus [1]; 91.8 mg/dL with Rattus norvegicus [2]; 78.5 mg/dL in the assay on Rattus norvegicus [4]; 47.66 mg/dL in the assay on Rattus norvegicus [5]; 39.1 mg/dL in the assay on Rattus norvegicus [6]; 117.1 mg/dL with Rattus norvegicus [7]. The compound further had an Activity in the assay with Rattus norvegicus [8] of 273.85 g. Besides, the Ratio in the assay with Rattus norvegicus [3] was determined as 1.99.

Turning to `Cc1nc2cc(O)ccc2c(=O)n1-c1ccc(OC(C)(C)C(=O)O)cc1`, the Activity with Rattus norvegicus [1] was 35.38 mg/dL; with Rattus norvegicus [2] it was 83 mg/dL; with Rattus norvegicus [4], 77.7 mg/dL; in the assay with Rattus norvegicus [5], 35.81 mg/dL; with Rattus norvegicus [6] it was 40.8 mg/dL; with Rattus norvegicus [7], 114.8 mg/dL. The Activity with Rattus norvegicus [8] is recorded as 260.1 g. Besides, in the assay with Rattus norvegicus [3], the Ratio was determined as 1.9.

Turning to `O=C(O)COc1ccc(-n2c(-c3ccccc3)nc3ccccc3c2=O)cc1`, the Activity in the assay with Rattus norvegicus [1] is 28.16 mg/dL; in the assay with Rattus norvegicus [2], 112.8 mg/dL; in the assay with Rattus norvegicus [4], 110.8 mg/dL; with Rattus norvegicus [5], 57.22 mg/dL; with Rattus norvegicus [6], 33.7 mg/dL; with Rattus norvegicus [7], 144.8 mg/dL. The Activity in the assay on Rattus norvegicus [8] came out at 281.2 g. For the same compound, the Ratio in the assay with Rattus norvegicus [3] was 3.26.

Turning to `CC1N(c2ccc(OCC(=O)O)cc2)C(=O)c2ccccc2N1c1ccccc1` (configuration not stated), the Activity in the assay on Rattus norvegicus [1] amounted to 12.21 mg/dL; in the assay on Rattus norvegicus [2] it was 114.1 mg/dL; with Rattus norvegicus [4] it was 108.9 mg/dL; with Rattus norvegicus [5] it was 70.91 mg/dL; with Rattus norvegicus [6], 41.4 mg/dL; in the assay on Rattus norvegicus [7], 158.8 mg/dL. Besides, in the assay with Rattus norvegicus [8], the Activity is 274.7 g. Besides, the Ratio in the assay with Rattus norvegicus [3] stood at 2.67.

As for `CC1N(c2ccc(OC(C)(C)C(=O)O)cc2)C(=O)c2ccccc2N1c1ccccc1` (configuration not stated), the Activity stood at 22.05 mg/dL with Rattus norvegicus [1]; 115 mg/dL with Rattus norvegicus [2]; 106.4 mg/dL in the assay on Rattus norvegicus [4]; 54.78 mg/dL in the assay on Rattus norvegicus [5]; 25.5 mg/dL in the assay with Rattus norvegicus [6]; 154.8 mg/dL in the assay on Rattus norvegicus [7]. In the assay with Rattus norvegicus [8], this compound came in with an Activity of 277.3 g. The Ratio in the assay on Rattus norvegicus [3] worked out at 4.15.

For the compound `Cc1nc2ccccc2c(=O)n1-c1ccc(OC(C)(C)C(=O)O)cc1`, the Activity with Rattus norvegicus [1] amounted to 37.05 mg/dL; with Rattus norvegicus [2], 89.19 mg/dL; with Rattus norvegicus [4], 93 mg/dL; in the assay with Rattus norvegicus [5], 44.66 mg/dL; in the assay on Rattus norvegicus [6], 40 mg/dL; with Rattus norvegicus [7], 154.1 mg/dL. In addition, in the assay with Rattus norvegicus [8], the Activity is reported as 272.17 g. For the same compound, the Ratio with Rattus norvegicus [3] is 2.32.

As for `Cc1nc2cc(O)ccc2c(=O)n1-c1ccc(OCC(=O)O)cc1`, the Activity came to 37.7 mg/dL in the assay with Rattus norvegicus [1]; 85.3 mg/dL in the assay on Rattus norvegicus [2]; 77 mg/dL in the assay with Rattus norvegicus [4]; 47.05 mg/dL with Rattus norvegicus [5]; 40.5 mg/dL with Rattus norvegicus [6]; 116.8 mg/dL with Rattus norvegicus [7]. Moreover, in the assay on Rattus norvegicus [8], the Activity came to 261.7 g. Further, the Ratio with Rattus norvegicus [3] is reported as 1.88.

Consider `CC(C)(Oc1ccc(-n2c(-c3ccccc3)nc3ccccc3c2=O)cc1)C(=O)O`, for which the Activity came to 24.3 mg/dL in the assay on Rattus norvegicus [1]; 114.8 mg/dL in the assay on Rattus norvegicus [2]; 97.5 mg/dL in the assay with Rattus norvegicus [4]; 64.33 mg/dL in the assay with Rattus norvegicus [5]; 31.6 mg/dL with Rattus norvegicus [6]; 158 mg/dL with Rattus norvegicus [7]. Also, the Activity with Rattus norvegicus [8] was determined as 284.5 g. For the same compound, in the assay with Rattus norvegicus [3], the Ratio is on record as 3.11.

Turning to `CC(C)OC(=O)C(C)(C)Oc1ccc(C(=O)c2ccc(Cl)cc2)cc1` [FENOFIBRATE], the Activity in the assay on Rattus norvegicus [1] was 37 mg/dL; in the assay on Rattus norvegicus [2] it was 86.41 mg/dL; in the assay on Rattus norvegicus [4], 85.4 mg/dL; in the assay on Rattus norvegicus [5] it was 54.66 mg/dL; in the assay on Rattus norvegicus [6] it was 34.38 mg/dL; in the assay with Rattus norvegicus [7], 125.3 mg/dL. The Activity in the assay with Rattus norvegicus [8] is given as 269 g. Further, the Ratio in the assay with Rattus norvegicus [3] worked out at 2.49.
